Key:
Assay type in all cases: cell-based, Saccharomyces cerevisiae
[1] = test system: RE700A i PPMA1-HXT7 (ICFP); test: Growth inhibition of ICFP by 2-DG; conditions: 20 h 28° C., maltose, in percent of growth of RE700A
Protocol: (B) RE700A, ICFP and IT[PDR] were incubated 20 h at 28° C. with maltose (2% (w/v)) as the sole carbon source and the indicated 2-DG concentrations. The optical density was measured at 600 nm every 15 minutes and the integral under the growth curve is calculated. Inhibition of growth of ICFP and IT[PDR] is shown in percent of growth of RE700A. Growth of ICFP was inhibited by 15% at 0.01% (w/v) 2-DG, by 74% at 0.03% (w/v) 2-DG, by 80% at 0.05% (w/v) 2-DG and by 83% at 0.1% (w/v) 2-DG. Growth of IT[PDR] was inhibited by 21% at 0.01% (w/v) 2-DG, by 79% at 0.03% (w/v) 2-DG, by 88% at 0.05% (w/v) 2-DG and by 96% in 0.1% (w/v) 2-DG.
Strain growth: The growth of the strains in liquid medium was determined by measuring the optical density at 600 nm. To obtain growth curves, measurements were performed every 15 min. Alternatively, start and endpoint (after 12-16 h) measurements were carried out.

[2] = test system: RE700A Δpdr1 tok1::PPDR5-HXT7; test: Growth inhibition of RE700A Δpdr1 tok1::PPDR5-HXT7 by 2-DG; conditions: RE700A Δpdr1 tok1::PPDR5-HXT7, maltose, 20 h 28° C.
Protocol: (§1) (A) Growth inhibition of RE700A i PPDR5-HXT7 (IT[PDR]), RE700A Δpdr1 tok1::PPDR5-HXT7, RE700A Δpdr3 tok1::PPDR5-HXT7 and RE700A Δpdr1,pdr3 tok1::PPDR5-HXT7 at increasing 2-DG concentrations. RE700A i PPDR5-HXT7 (IT[PDR]), RE700A Δpdr1 tok1::PPDR5-HXT7, RE700A Δpdr3 tok1::PPDR5-HXT7 and RE700A Δpdr1,pdr3 tok1::PPDR5-HXT7 were incubated 20 h at 28° C. with Maltose (2% (w/v)) as the sole carbon source and 2-DG concentrations as indicated. The optical density was measured at 600 nm every 15 minutes and the integral under the growth curve was calculated. Inhibition of growth caused by 2-DG is shown in percent. The growth of the strain RE700A tok1::PPDR5-HXT7 (IT[PDR]) was inhibited by 50% at 0.02% (w/v) 2-DG. Growth of the strains RE700A Δpdr1 tok1::PPDR5-HXT7 and RE700A Δpdr3 tok1::PPDR5-HXT7 was inhibited by 50% at 0.026% (w/v) 2-DG.
(§2) All strains expressing HXT7 were tested for sensitivity to 2-DG. The strains expressing GFP under the control of PPDR5 were additionally analysed for GFP fluorescence in comparison to RE700Ae PPDR5-GFP (strain CQ[PDR]).

[3] = test system: RE700A Δpdr3 tok1::PPDR5-HXT7; test: Growth inhibition of RE700A Δpdr3 tok1::PPDR5-HXT7 by 2-DG; conditions: RE700A Δpdr3 tok1::PPDR5-HXT7, maltose, 20 h 28° C.
Protocol: as §1, §2

[4] = test system: RE700A Δpdr1 tok1::PPDR5long-HXT7; test: Growth of RE700A Δpdr1 tok1::PPDR5long-HXT7 in the presence of 2-DG; conditions: RE700A Δpdr1 tok1::PPDR5long-HXT7, 20 h 28° C.
Protocol: (§3) (B) Relative growth of RE700A tok1::PPDR5long-HXT7, RE700A Δpdr1 tok1::PPDR5long-HXT7, RE700A Δpdr3 tok1::PPDR5long-HXT7 and RE700A Δpdr1,3 tok1::PPDR5long-HXT7 in the presence of 2-DG. Cells were incubated for 20 h at 28° C. with 2-DG at different concentrations. […] The standard error of the mean (n=5) is indicated.

[5] = test system: RE700A Δpdr3 tok1::PPDR5long-HXT7; test: Growth of RE700A Δpdr3 tok1::PPDR5long-HXT7 in the presence of 2-DG; conditions: RE700A Δpdr3 tok1::PPDR5long-HXT7, 20 h 28° C.
Protocol: as §3

[6] = test system: RE700A e PCDR2-HXT7 (ET[CDR2]); test: Growth inhibition of ET[CDR2] by 2-DG; conditions: liquid media, 20 h 28° C., compared to growth in the absence of 2-DG
Protocol: FIG. 6: Growth inhibition of RE700A, ET[CDR1] and ET[CDR2] in the presence of increasing 2-DG concentrations after 20 h incubation at 28° C. for in liquid medium. RE700A, ET[CDR1] and ET[CDR2] were incubated 20 h at 28° C. with maltose (2% (w/v)) as the sole carbon source in the presence of increasing 2-DG concentrations in liquid medium. The optical density was measured at 600 nm semi-continuously every 15 minutes and the integral under the growth curve was calculated. Inhibition of growth is shown in percent compared to growth in the absence of 2-DG. Growth of ET[CDR1] was inhibited by 92% at a 2-DG concentration in liquid media of 0.05% (w/v), by 94% at a 2-DG concentration in liquid media of 0.075% (w/v), by 93% at a 2-DG concentration in liquid media of 0.1% (w/v) and by 95% at a 2-DG concentration of 0.2% (w/v). Growth of ET[CDR2] was inhibited by 50% at a 2-DG concentration in liquid media of 0.05% (w/v), by 70% at a 2-DG concentration in liquid media of 0.075% (w/v), by 70% at a 2-DG concentration in liquid media of 0.1% (w/v) and by 84% at a 2-DG concentration of 0.2% (w/v).
(2) Episomal screening system for inhibitors of PCDR2: S. cerevisiae strain RE700A was transformed with plasmids pY-PCDR2-HXT7 and pY-PCDR2-GFP yielding strains ET[CDR2] and CQ[CDR2] (for details see construction of strains and plasmids, for the complete genotype refer to Table 1). The inhibition of growth of ET[CDR2] by 2-DG was tested. The growth of this strain was inhibited to more than 80% at a 2-DG concentration of 0.2% (w/v) (FIG. 6). To screen for inhibitors of the PCDR2, the test strain ET[CDR2] can be incubated in selective YNB medium with 2% (w/v) maltose as the carbon source and 0.2% (w/v) 2-DG. Under these non-permissive conditions the growth of the test strain ET[CDR2] was inhibited when PCDR2 was active (FIG. 6).

Structure (SMILES): O=CC[C@@H](O)[C@H](O)[C@H](O)CO [2-DG, 2-deoxy-glucose]
- Inhibition of growth ([1]; 0.01% (w/v) 2-DG): 15%
- Inhibition of growth ([1]; 0.03% (w/v) 2-DG): 74%
- Inhibition of growth ([1]; 0.05% (w/v) 2-DG): 80%
- Inhibition of growth ([1]; 0.1% (w/v) 2-DG): 83%
- 2-DG concentration for 50% growth inhibition [2]: 0.026 % (w/v)
- 2-DG concentration for 50% growth inhibition [3]: 0.026 % (w/v)
- 2-DG concentration for 50% growth inhibition [4]: 0.068 % (w/v)
- 2-DG concentration for 50% growth inhibition [5]: 0.029 % (w/v)
- Inhibition of growth ([6]; 0.05% (w/v) 2-DG): 50%
- Inhibition of growth ([6]; 0.075% (w/v) 2-DG): 70%
- Inhibition of growth ([6]; 0.1% (w/v) 2-DG): 70%

— US9121026B2 (priority 2004, dated 2015)
